One data set concerns Drosophila melanogaster. As to the kind of experiment: Drosophila test. The format is in vivo. To be noted: 24 h, after 1 day, read-out: Degree of destruction in % after 1 day; for mortality at 0.001 % strength: 0.001% by weight active compound; for mortality at 0.01 % strength: 0.01% by weight active compound. The method, then: Solvent: 3 parts by weight of dimethylformamide
(§1) Emulsifier: 1 part by weight of alkylaryl polyglycol ether
To produce a suitable preparation of active compound, 1 part by weight of the active compound was mixed with the stated amount of solvent containing the stated amount of emulsifier, and the concentrate was diluted with water to the desired concentration.
1 cm^3 of the preparation of the active compound was applied with a pipette to a filter paper disc of 7 cm diameter. The wet disc was placed over the orifice of a glass vessel containing 50 vinegar flies (Drosophila melanogaster) and covered with a glass plate.
After the specified periods of time, the destruction was determined in %. 100% means that all the flies were killed; 0% means that no flies were killed.

The next data set deals with Laphygma exigua. As to the kind of experiment: Laphygma test. The format is in vivo. The method, then: (§2) Solvent: 3 parts by weight of acetone
as §1
To produce a suitable preparation of active compound, 1 part by weight of the active compound was mixed with the stated amount of solvent and the stated amount of emulsifier and the concentrate was diluted with water to the desired concentration.
Cotton leaves (Gossypium hirsutum) were sprayed with the preparation of the active compound until dew-moist and were then infested with caterpillars of the owlet moth (Laphygma exigua).
After the specified periods of time, the destruction in % was determined.

A short description of a further data set: Toxicity test/peroral. Particulars: in vivo, po; albino rat, peroral; evaluation after 7 days. As for the experimental part:
Test animal: Albino rat (Rattus norvegicus)
To produce a suitable preparation of active compound, 3 parts by weight of active compound were mixed with 2.8 parts by weight of highly-dispersed silica and 4.2 parts by weight of talc. Suspensions which contain, in 1 ml of liquid, the amount of active compound to be applied per 100 g of animal weight, were prepared from the above active compound concentrate, with a little added powdered vegetable gum, by grinding with water. Dosing was effected volumetrically after weighing the test animals. A steel knob-ended probe was used for oral administration. The evaluation was carried out in each case after the end of the above-mentioned time interval, calculated from the administration of the active compound.
The LD50 values (dose of active compound at which 50% of the treated animals were killed) were determined in the usual manner from the mortality figures of the doses, which were varied in geometrical progression.

The test system of a further data set is insects and acarids. To be noted: in vivo; cited from earlier work.
For a further data set, the system named is Phaedon cochleariae. The data set is described as follows: Phaedon larvae test (long-term action after spraying). Format: in vivo. To be noted: 0.05% active compound, Brassica oleracea. As for the experimental part: as §2, §1
(§3) To produce a suitable preparation of active compound, 1 part by weight of the active compound was mixed with the stated amount of solvent containing the stated amount of emulsifier and the concentrate was diluted with water to the desired concentration.
(§4) Cabbage plants (Brassica oleracea), which were about 10-15 cm high, were sprayed with the preparation of the active compound until dripping wet.
After the specified periods of time, the plants were infested with mustard beetle larvae (Phaedon cochleariae). After intervals of 3 days, the destruction in % was determined. 100% means that all beetle larvae had been killed whereas 0% means that none of the beetle larvae had been killed.

For a further data set, the system named is Myzus persicae. The data set is described as follows: Myzus test (long-term action after spraying). Particulars: 0.05% active compound, Brassica oleracea. The format is in vivo. As for the experimental part:
as §2, §1, §3, §4
After the specified periods of time, the plants were infested with aphids (Myzus persicae). After intervals of 3 days, the destruction in % was determined. 100% means that all aphids had been killed whereas 0% means that none of the aphids had been killed.

The test system of another data set is Lucilia cuprina. As to the kind of experiment: Test with parasitic fly larvae. Format: in vivo. Particulars: 24 hours, Lucilia cuprina res., read-out: Degree of destruction in %. As for the experimental part:
Solvent: 35 parts by weight of ethylene polyglycol monomethyl ether
35 parts by weight of nonylphenol polyglycol ether
To produce a suitable preparation of active compound, 30 parts by weight of the active substance in question were mixed with the stated amount of solvent which contained the abovementioned proportion of emulsifier and the concentrate thus obtained was diluted with water to the desired concentration.
About 20 fly larvae (Lucilia cuprina) were introduced into a test tube which contains approximately 2 cm^3 of horse muscle. 0.5 ml of the preparation of active compound was applied to this horse meat. After 24 hours, the degree of destruction in % was determined. 100% means that all larvae had been killed and 0% means that no larvae had been killed.

Setting [1] is: 0.001% by weight active compound.
The mark [2] stands for this setting: 0.01% by weight active compound.
The mark [3] stands for this setting: 96 h, 4 days, read-out: % destruction after 4 days.
[4] abbreviates: 192 h, 8 days, read-out: % destruction after 8 days.

Like-named read-outs stand apart in the source and are kept apart here.

Results on 18 molecules are retold here after patent publication US4041158A, “O-alkyl-0-[1-(3-nitrophenyl)-2-carbalkoxy-vinyl ]-thiono(thiol)-phosphoric (phosphonic) acid esters” (priority 1974, dated 1977).

In the case of `CCCOP(=S)(OCC)OC(=CC(=O)OC(C)C)c1cccc([N+](=O)[O-])c1` (stereo not drawn), in the data set with Drosophila melanogaster, the mortality at 0.001 % strength was 98% and the mortality at 0.01 % strength was determined as 100%.

As for `CCOC(=O)C=C(OP(=S)(OC)OC)c1cccc([N+](=O)[O-])c1`, the “Degree of destruction in % after 3 days” value in the data set with Laphygma exigua (setting [1]) is reported as 85%; with Laphygma exigua (setting [2]), 100%.

On to `CCCOP(=S)(OCC)OC(=CC(=O)OCC)c1cccc([N+](=O)[O-])c1` (stereo not drawn), for which, in “Toxicity test/peroral”, the LD50 at 168 h fell in the range of 50 to 100 mg/kg.

In the data set “Toxicity test/peroral”, `CCOC(=O)C=C(OP(=S)(OCC)c1ccccc1)c1cccc([N+](=O)[O-])c1` (stereo not drawn) yielded an LD50 at 168 h of 50 to 100 mg/kg.

Consider `CCOC(=O)C=C(OP(=S)(OC)OC)c1ccc([N+](=O)[O-])cc1` [Compound A, O,O-dimethyl-O-[1-(4-nitrophenyl)-2-carbethoxyvinyl]-thionophosphoric acid ester], for which the “insecticidal and acaricidal properties” value in the data set on insects and acarids was “possess insecticidal and acaricidal properties”.

In the case of `CCOC(=O)C=C(OP(=S)(OCC)OCC)c1ccc([N+](=O)[O-])cc1` [Compound B, O,O-diethyl-O-[1-(4-nitrophenyl)-2-carbethoxyvinyl]-thionophosphoric acid ester], the “insecticidal and acaricidal properties” value with insects and acarids is “possess insecticidal and acaricidal properties”.

On to `CCOC(=O)C=C(OP(=S)(OC)OC)c1ccc([N+](=O)[O-])cc1` [drawing 8, reference compound], for which, in the data set on Drosophila melanogaster, the mortality at 0.001 % strength was 0% and the mortality at 0.01 % strength was determined as 100%.

`CCOC(=O)C=C(OP(=S)(OCC)OCC)c1cccc([N+](=O)[O-])c1` [drawing 9]: in the data set with Drosophila melanogaster, the mortality at 0.001 % strength stood at 99% and the mortality at 0.01 % strength came to 100%.

Turning to `CCOP(=S)(OCC)OC(=CC(=O)OC(C)C)c1cccc([N+](=O)[O-])c1` [drawing 10], in the data set with Drosophila melanogaster, the mortality at 0.001 % strength stood at 100% and the mortality at 0.01 % strength is 100%.

Consider `CCOC(=O)C=C(OP(=S)(OC)OC)c1ccc([N+](=O)[O-])cc1` [drawing 12, reference compound], for which the figures for the “Degree of destruction in % after 3 days” value in the data set on Laphygma exigua (setting [1]) and in the data set on Laphygma exigua (setting [2]) were 0% and 100%, respectively.

On to `CCOC(=O)C=C(OP(=S)(OCC)OCC)c1cccc([N+](=O)[O-])c1` [drawing 14], for which the “Degree of destruction in % after 3 days” value in the data set on Laphygma exigua (setting [1]) and in the data set with Laphygma exigua (setting [2]) was 100% throughout.

Turning to `CCOP(=S)(OCC)OC(=CC(=O)OC(C)C)c1cccc([N+](=O)[O-])c1` [drawing 19], the “Degree of destruction in % after 3 days” value in the data set with Laphygma exigua (setting [1]) and in the data set with Laphygma exigua (setting [2]) was 100% throughout.

For `CCOC(=O)C=C(OP(=S)(OCC)OCC)c1ccc([N+](=O)[O-])cc1` [drawing 20], the mortality at 0.05 % strength with Phaedon cochleariae (setting [3]) was found to be 100%; in the data set on Phaedon cochleariae (setting [4]), 100%; in the data set with Phaedon cochleariae (264 h, 11 days, read-out: % destruction after 11 days), 50%; with Phaedon cochleariae (360 h, 15 days, read-out: % destruction after 15 days), 0%.

Regarding `CCOC(=O)C=C(OP(=S)(OCC)OCC)c1ccc([N+](=O)[O-])cc1` [drawing 23], the figures for the mortality at 0.05 % strength with Myzus persicae (setting [3]) and in the data set with Myzus persicae (setting [4]) were 50% and 0%, respectively.

For the molecule `CCOC(=O)C=C(OP(=S)(OCC)OCC)c1ccc([N+](=O)[O-])cc1` [drawing 26, reference compound], the LD50 at 168 h in “Toxicity test/peroral” lay within 10 to 25 mg/kg.

Consider `CCCSP(=S)(OCC)OC(=CC(=O)OCC)c1cccc([N+](=O)[O-])c1` (stereo not drawn) [drawing 27], for which, in “Toxicity test/peroral”, the LD50 at 168 h is 100 to 250 mg/kg.

Turning to `CCCSP(=S)(OCC)OC(=CC(=O)OCC)c1cccc([N+](=O)[O-])c1` (stereo not drawn) [drawing 30], in the data set on Lucilia cuprina, the mortality at 10 ppm turned out to be 100% and the mortality at 100 ppm was determined as 100%. Moreover, the mortality at 30 ppm in the data set on Lucilia cuprina (30 ppm) is 100%.

As to `CCOC(=O)C=C(OP(=S)(OCC)OCC)c1ccc([N+](=O)[O-])cc1` [drawing 31], in the data set with Lucilia cuprina, the mortality at 10 ppm was more than 50% and the mortality at 100 ppm is 100%.
